Consider two molecules from patent US10160812B2, “Bispecific HER2 antibodies” (MedImmune, LLC, priority 2014, dated 2018).

Entries after “also recorded” stand apart in the source; their conditions may differ.

Experiment [1] has as its system RT-112. Put plainly: Disruption of intracellular microtubule network (immunofluorescence). The class given is cell-based, human. The settings on record: RT-112 (T-DM1 ineligible), 5 nM ADC overnight. Here is the method:
On day 1, cells were harvested by trypsinization, resuspended in culture media, and then seeded in 8-well chamber slides at a density of 6×10^4 cells/well. Slides were incubated at 37° C./5% CO2 overnight. On day 2, media were aspirated to remove any unattached cells and then fresh media containing 5 nM ADC to be tested were added to the cells. Slides were incubated at 37° C./5% CO2 overnight. On day 3, each chamber was washed twice with 1×PBS. Cells were then fixed with 4% PFA for 20 min. At the end of fixation, the chambers were removed and slides were stained following standard immunofluorescence procedures. Briefly, cells were permeabilized using Triton X-100 and washed with 1×PBS containing Tween-20. Rabbit anti-human α-Tubulin Alexa-Fluor 488 (clone 11H10) was diluted by 1:100 in DAKO antibody diluent and added to the slides. After incubation at room temperature for 1 hour, slides were coversliped with ProLong® Gold Antifade Reagent containing DAPI. Stained cells were visualized by the Leica SP5 Confocal Microscope and the Leica Application Suite Advanced Fluorescence software suite.

Experiment [2] deals with SKOV-3. Put plainly: In vitro cytotoxic activity (Cell Titer Glo). The class given is cell-based, human. The settings on record: SKOV-3, 3 to 4 days; read-out: In vitro potency (EC50 in pM). On the technique in general: In ATP-based viability assays light output follows the ATP content of the culture.
Description: (§2) A panel of human cancer cell lines expressing various levels of HER2 was used to evaluate the cytotoxic activity of bispecific ADC (Table 5 in Example 1). Briefly, cells were harvested, resuspended, and plated in serum-containing culture media at a density of 5,000 to 20,000 per well (depending on the growth kinetics of each cell line) of 96-well plates in a volume of 100 μL. A 2× concentration of each dose of antibody or ADC to be tested was prepared by diluting the test articles in culture medium. One hundred microliters of each test article was added to cells in triplicate such that the final dose curve ranged from 5 nM down to 0.08 pM in a stepwise 1:4 serial dilution series. The treated cells were incubated at 37° C./5% CO2 for 3 to 4 days, depending on the growth kinetics of each particular cell line. Cell viability was determined using Cell Titer Glo according to manufacturer's instructions. Data are analyzed by the GraphPad Prism software and presented as percent growth inhibition relative to the untreated control. EC50 values were determined using Sigmoidal non-linear regression analysis with GraphPad Prism software and were summarized in Table 6.
The subject of experiment [3] is JIMT-1. Put plainly: In vitro cytotoxic activity (Cell Titer Glo). The class given is cell-based, human. The settings on record: JIMT-1, 3 to 4 days.
Description: as §2
Experiment [4] has as its system RT-112. Put plainly: In vitro cytotoxic activity (Cell Titer Glo). To be noted: RT-112, 3 to 4 days. The class given is cell-based, human.
Description: (§3) Briefly, cells were harvested, resuspended, and plated in serum-containing culture media at a density of 5,000 to 20,000 per well (depending on the growth kinetics of each cell line) of 96-well plates in a volume of 100 μL. A 2× concentration of each dose of antibody or ADC to be tested was prepared by diluting the test articles in culture medium. One hundred microliters of each test article was added to cells in triplicate such that the final dose curve ranged from 5 nM down to 0.08 pM in a stepwise 1:4 serial dilution series. The treated cells were incubated at 37° C./5% CO2 for 3 to 4 days, depending on the growth kinetics of each particular cell line. Cell viability was determined using Cell Titer Glo according to manufacturer's instructions. Data are analyzed by the GraphPad Prism software and presented as percent growth inhibition relative to the untreated control.
Experiment [5] relates to T47D. Put plainly: In vitro cytotoxic activity (Cell Titer Glo). The class given is cell-based, human. To be noted: 3 to 4 days.
Description: as §3
For experiment [6], the system named is ST455B model. Put plainly: PDX tumor model (triple-negative, HER2 IHC 1+). The settings on record: Bs2-4T at 3 mg/kg. The class given is in vivo, Athymic nude mice. On the procedure:
(§1) All mouse experiments were carried out in compliance with the guidelines published by the Association for Assessment and Accreditation of Laboratory Animal Care (AAALAC) and protocols approved by the MedImmune Institutional Animal Care and Use Committee. Athymic nude mice between 4-8 weeks of age were used in the studies. In subcutaneous CBX models, animals were injected unilaterally on the right flank with tumor cells harvested from culture at a specific passage lot. In orthotopic CBX models, xenografts were established by injecting 5×10^6 cells per mouse (suspended in 50% matrigel) into the mammary fat pad on the right flank of animals. In PDX models, animals are implanted unilaterally on the flank with tumor fragments harvested from host animals each implanted from a specific passage lot. Pre-study tumor volumes were recorded for each experiment beginning approximately one week prior to its estimated start date. When tumors reach the appropriate tumor volume initiation (TVI) range (typically 150-250 mm^3), animals are randomized into treatment and control groups and dosing initiated. […] Animals were observed daily and tumor dimensions and body weights were measured and recorded twice weekly. Tumor volumes are calculated using the following formula: tumor volume=π÷6 (length×width^2). […]

Experiment [7] concerns ST996 model. Put plainly: PDX tumor model (triple-negative, HER2 IHC 1+). The class given is in vivo, Athymic nude mice. To be noted: Bs2-2T at 3 mg/kg. On the procedure: as §1
For experiment [8], the system named is T-DM1 resistant NCI-N87 tumor model. Put plainly: In vivo tumor model with acquired T-DM1 resistance. Set-up: species or system mice. The settings on record: weekly intravenous dosing, 3 mg/kg (pertuzumab 10 mg/kg), total of 4 doses.
Description: To establish an in vivo tumor model with acquired T-DM1 resistance, the T-DM1-resistant NCI-N87 cells were injected subcutaneously into the immune-deficient mice. The tumor-bearing mice were treated with 3 mg/kg of T-DM1. It appeared that the in vitro T-DM1 resistance was not fully translated into the in vivo resistance, reflected by considerable variations in tumor growth among animals. Thus, mice with large refractory tumors (˜1000 mm^3 in volume) were selected and the tumor tissue fragments were passaged to new mice until the tumors grew consistently in the presence of weekly treatment of 3 mg/kg T-DM1.
The subject of experiment [9] is NCI-N87 and MDA-MB-468 cells co-culture. Put plainly: Bystander effect co-culture assay (FACS). The class given is cell-based, human. The settings on record: co-culture of HER2-overexpressing NCI-N87 and HER2-null MDA-MB-468, 5 nM, 4 days. On the procedure:
NCI-N87 cells were stably transfected with green fluorescent protein (GFP) and MDA-MB-468 cells were stably transfected with red fluorescent protein (RFP). Both cell lines were harvested, washed, resuspended in culture media and then seeded in the same well of a 6-well plate as co-culture. As a control, each cell line was seeded in a different 6-well plate as single culture (FIG. 28A). To adjust to different growth kinetics, NCI-N87 cells were seeded at 5×10^5 cells/well and MDA-MB-468 cells were seeded at 2×10^5 cells/well. Cells were incubated for 2 days at 37° C./5% CO2. Media were aspirated and fresh media containing 5 nM of antibody or ADC to be tested was added to cells and the plates were incubated for 4 days at 37° C./5% CO2. At the end of treatment, cells in each well were collected, washed, resuspended in 100 μL of ice-cold FACS buffer and then fixed with 2% PFA. Cells were analyzed by a BD LSR II machine and BD FACSDiva™ software. Data were analyzed with FlowJo software.

In experiment [10] the target is mouse Her2 (Mus musculus, UniProt P70424). Put plainly: ProteOn SPR binding of 39S to captured Mouse Her2. The settings on record: Mouse Her2 control. From the text: The variant nomenclature denotes types of variants (KO/KI) and the swapped regions with amino acid numbering. Amino acid positions were denoted basing on the numbering scheme of mature human HER2 sequences without its signal peptide. The expression levels of all variants were monitored by an anti-His polyclonal antibody. The binding profiles of 39S to these variants were characterized using a SPR based instrument ProteOn™ by capturing variants on sensor surfaces using anti-human and mouse Her2 polyclonal antibodies.
The binding characteristics of 39S to chimeric human/mouse variants were studied using a ProteOn™ XPR36 instrument (BioRad). Standard amine coupling was used to immobilize an anti-human or mouse Her2 polyclonal antibody (R&D System) in 10 mM sodium acetate (pH 5.0) to the surface of a GLC biosensor chip at ˜5000 resonance units (RU) for each channel. The chimeric proteins in cell culture supernatant were injected and captured by anti-human or mouse polyclonal antibodies onto the GLC surface with a ˜200RU response. Anti-HER2 mAb 39S was diluted in phosphate-buffered saline (PBS) (pH 7.4) with 0.005% Tween-20 from 10 nM to 0.625 nM (1:2 dilution), and injected at 100 μL/min for 180 sec with a 600-second dissociation time. Expression levels of chimeric variants were monitored by flowing anti-His polyclonal antibody (MedImmune) under the same conditions as injecting 39S. […]
On the technique in general: In SPR one partner is held on a chip, and binding of the other changes the refractive index at the surface.

Experiment [11] deals with HER2 (Homo sapiens, UniProt P04626). Put plainly: FACS-based binding competition assay with labeled 39S. Set-up: endogenous in cells; host or cells: BT-474. The settings on record: BT-474 cells, 2 ug/mL labeled 39S. Here is the method: BT-474 cells were harvested, resuspended in FACS buffer, and 2.5×10^5 cells/well were added to a 96-well U-bottom plate. […] After 1 hour of staining on ice, cells were washed 3 times with ice-cold FACS buffer and then fixed with 2% PFA. Cells were analyzed by a BD LSR II machine with BD FACSDiva™ software. Data were analyzed with FlowJo software and presented as mean MFI±SEM (n=3).

mouse Her2, sequence (P70424 23-1256): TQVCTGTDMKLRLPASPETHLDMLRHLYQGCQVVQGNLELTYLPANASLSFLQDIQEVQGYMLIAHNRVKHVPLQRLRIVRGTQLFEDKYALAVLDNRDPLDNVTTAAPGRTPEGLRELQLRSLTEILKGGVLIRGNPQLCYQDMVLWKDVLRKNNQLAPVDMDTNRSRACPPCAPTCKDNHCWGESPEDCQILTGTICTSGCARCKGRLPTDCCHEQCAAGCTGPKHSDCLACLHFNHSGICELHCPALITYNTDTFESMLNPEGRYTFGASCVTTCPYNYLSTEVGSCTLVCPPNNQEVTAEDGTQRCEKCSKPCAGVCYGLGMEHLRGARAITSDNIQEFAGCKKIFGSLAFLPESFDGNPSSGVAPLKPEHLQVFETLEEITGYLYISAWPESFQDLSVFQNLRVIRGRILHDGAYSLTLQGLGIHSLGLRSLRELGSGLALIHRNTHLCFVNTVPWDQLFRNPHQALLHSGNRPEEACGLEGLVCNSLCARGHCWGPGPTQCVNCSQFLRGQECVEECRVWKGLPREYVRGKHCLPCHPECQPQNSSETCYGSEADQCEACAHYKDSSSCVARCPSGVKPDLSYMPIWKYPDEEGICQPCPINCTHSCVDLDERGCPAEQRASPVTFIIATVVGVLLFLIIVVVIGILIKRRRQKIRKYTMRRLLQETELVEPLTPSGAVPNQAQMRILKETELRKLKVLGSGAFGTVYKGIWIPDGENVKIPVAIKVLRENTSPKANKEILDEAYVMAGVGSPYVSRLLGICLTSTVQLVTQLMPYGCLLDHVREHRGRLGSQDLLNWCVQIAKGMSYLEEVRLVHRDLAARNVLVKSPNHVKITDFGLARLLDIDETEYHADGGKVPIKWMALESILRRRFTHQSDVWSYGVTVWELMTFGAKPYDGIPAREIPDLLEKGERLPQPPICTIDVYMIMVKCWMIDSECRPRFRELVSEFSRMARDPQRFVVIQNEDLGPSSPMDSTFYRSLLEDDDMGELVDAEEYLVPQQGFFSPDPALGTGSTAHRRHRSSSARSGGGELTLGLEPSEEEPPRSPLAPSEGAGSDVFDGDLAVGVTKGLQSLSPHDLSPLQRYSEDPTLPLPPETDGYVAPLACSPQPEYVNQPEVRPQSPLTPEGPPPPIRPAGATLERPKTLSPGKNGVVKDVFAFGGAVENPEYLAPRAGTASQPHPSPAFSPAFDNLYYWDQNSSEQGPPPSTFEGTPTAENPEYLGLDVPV

On to T-DM1 [reference compound], for which the “disruption of intracellular microtubule networks” value in experiment [1] was “inactive”. Further, the half-maximal effective concentration (EC50) in [2] turned out to be 116 pM. The “In vitro potency (EC50 in pM)” value in [3], in [4] and in experiment [5] was “Inactive” each time. The “in vivo activity (tumor growth)” value in experiment [6] is recorded as “no activity”; in [7] it was “no activity”; in [8], “resistant”. Also, the bystander effect entry in [9] is on record as “does not have bystander effect”.

B1: 39S: lead optimized monoclonal antibody derived from the 1.39.1 antibody; VH SEQ ID NO:15, VL SEQ ID NO:16 (antibody, V domains shown)
VH: EVQLVESGGGLVKPGGSLRLSCAASGFTFSSYSMSWVRQAPGKGLEWVSSISSSSSYIYYADSVKGRFTISRDNAKNSLYLQMNSLRAEDTAVYYCARGGDAYNYYYFDYWGQGTLVTVSS
VL: DIVMTQTPLSLSVTPGQPASISCKSSQSVFFRSNNKNILAWYLQKPGQPPQLLIYWASSRESGVPDRFSGSGSGTDFTLKISRVEAEDVGVYYCQQYFGSPFTFGPGTKVDIK
As for B1, the “The binding affinity of 39S (KD)” value in experiment [10] is “No”. Further, in [11], the “competition for binding / epitope” value was “does not compete with trastuzumab or pertuzumab; also recorded: binds to the same epitope as its parental antibody AZ1.39.1”.

Usually EC50 stands for the concentration giving half of the maximal effect.
